According to publication PMC6044636 (ACS Omega, 2016):

Molecular target: A2AR (Homo sapiens, UniProt P29274)
Type: binding

Chain of A2AR (P29274 whole entry): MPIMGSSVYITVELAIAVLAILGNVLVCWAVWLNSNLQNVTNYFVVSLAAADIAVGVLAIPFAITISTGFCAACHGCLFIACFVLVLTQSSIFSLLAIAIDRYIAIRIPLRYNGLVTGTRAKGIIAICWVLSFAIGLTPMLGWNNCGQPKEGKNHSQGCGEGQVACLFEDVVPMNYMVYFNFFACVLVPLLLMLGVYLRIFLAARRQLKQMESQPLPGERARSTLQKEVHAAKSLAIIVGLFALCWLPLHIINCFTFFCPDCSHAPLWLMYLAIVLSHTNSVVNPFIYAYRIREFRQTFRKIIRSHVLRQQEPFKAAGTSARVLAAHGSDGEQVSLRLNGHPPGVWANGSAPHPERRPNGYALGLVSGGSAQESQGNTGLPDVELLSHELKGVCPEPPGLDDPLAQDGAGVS

Ki: 1.2 nM
SMILES: Cn1c(-n2nccn2)nc2c(N)nc(CCC3CCCCC3)nc21 [Compound 8, 2-(2-Cyclohexylethyl)-9-methyl-8-(2H-1,2,3-triazol-2-yl)-9H-purin-6-amine]
